Experimental data reported in patent US20240239790A1, “7-Morpholino-1,6-Naphthyridin-5-yl Derivatives and Pharmaceutical Compositions Thereof Useful as DNA-PK Inhibitor” (adMare Therapeutics Society, priority 2021, published 2024).
pIC50: −log10 of the molar value.

Experiments:
[1] = target: T1, DNA-PK (Homo sapiens, UniProt P78527); experiment: DNA-PK Assay for Biochemical Enzymatic Inhibition (ADP Glo Kinase assay); conditions: DNA-PK enzyme, Table 1
T1 construct: purchased Invitrogen PR9107A
Method in brief: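 Human DNA-PK (25 ng) preincubated 15 min with compounds (ten three-fold dilutions) in HEPES pH 7.5, MgCl2, KCl, calf thymus DNA buffer, then substrate 434.4 μM and ATP 64.4 μM (final) for 60 min at room temperature. ADP-Glo luminescence; percent inhibition fitted by four-parameter regression for IC50.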

[2] = target: T2, DNA-PK phosphorylation at Serine 2056 (Homo sapiens, UniProt P78527); experiment: Cellular Assay for Inhibition of DNA-PK Phosphorylation at Serine 2056 in FaDu cells (sandwich ELISA, neocarzinostatin); format: cell-based; conditions: pSer2056 DNA-PK, neocarzinostatin 1 μg/mL, Table 1
T2 construct: FaDu cells were purchased from ATCC; host or cells: FaDu
Method in brief: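 FaDu cells pre-treated with compound (0.3% DMSO) for 1 h, then neocarzinostatin 1 μg/mL final added for 2 h to induce DSBs. Protein-normalised lysates read by sandwich ELISA for total and pSer2056 DNA-PK; % inhibition normalised between DMSO and NCS controls, IC50 from variable-slope log(inhibitor) fit.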

[3] = Hepatocyte Stability Assay, human hepatocytes; format: in vitro ADME; conditions: for hepatocyte CLint at 1 uM: both sexes, cryopreserved hepatocytes, pH 7.3, human hepatocytes 0.7 million cells per mL, 1 uM compound; for Hepatocyte Stability Human % rem. 120 min: human hepatocytes
Experimental: Cryopreserved mouse hepatocytes were obtained from a pool of 10 or more male CD-1 mice. Cryopreserved human hepatocytes were obtained from a pool of 10 or more donors of mixed gender. Final hepatocyte density was 0.7 million viable cells per mL and test compound concentration was 1 uM with a maximum of 0.01% DMSO. Cryopreserved hepatocytes were thawed, washed, and resuspended in Krebs-Heinslet buffer (pH 7.3). The reaction was initiated by adding the test compound into cell suspension and incubated for 0, […], 1, 1.5, and 2 h, respectively, at 37° C./5% C02. The reaction was stopped by adding acetonitrile into the incubation mixture. Samples were then mixed, transferred completely to another 96-well plate, and centrifuged. Supernatants were used for HPLC-MS/MS analysis. […] Peak areas corresponding to the test compound were recorded.

CN(C)C(=O)COc1cnc(N[C@H]2CC[C@@H](Oc3nc(N4CCOCC4)cc4ncccc34)CC2)nc1 [Compound 54, N,N-Dimethyl-2-((2-(((1s,4s)-4-((7-morpholino-1,6-naphthyridin-5-yl)oxy)cyclohexyl)amino)pyrimidin-5-yl)oxy)acetamide]
pIC50 [1]: 9.00 to 9.30
pIC50 [2]: > 7.00
hepatocyte CLint at 1 uM [3]: < 8.2 µL/min/1e6 cells
Hepatocyte Stability Human % rem. 120 min [3]: F (% remaining = 25-50%)

O=C(COc1cnc(N[C@H]2CC[C@@H](Oc3nc(N4CCOCC4)cc4ncccc34)CC2)nc1)N1CCOCC1 [Compound 61, 1-Morpholino-2-((2-(((1s,4s)-4-((7-morpholino-1,6-naphthyridin-5-yl)oxy)cyclohexyl)amino)pyrimidin-5-yl)oxy)ethan-1-one]
pIC50 [1]: 9.00 to 9.30
pIC50 [2]: > 7.00
hepatocyte CLint at 1 uM [3]: < 8.2 µL/min/1e6 cells
Hepatocyte Stability Human % rem. 120 min [3]: G (% remaining = 50-75%)

CN1CCN(C(=O)COc2cnc(N[C@H]3CC[C@@H](Oc4nc(N5CCOCC5)cc5ncccc45)CC3)nc2)CC1 [Compound 62, 1-(4-Methylpiperazin-1-yl)-2-((2-(((1s,4s)-4-((7-morpholino-1,6-naphthyridin-5-yl)oxy)cyclohexyl)amino)pyrimidin-5-yl)oxy)ethan-1-one]
pIC50 [1]: > 9.30
pIC50 [2]: > 7.00
hepatocyte CLint at 1 uM [3]: > 8.2 µL/min/1e6 cells
Hepatocyte Stability Human % rem. 120 min [3]: F (% remaining = 25-50%)

O=C(COc1cnc(N[C@H]2CC[C@@H](Oc3nc(N4CCOCC4)cc4ncccc34)CC2)nc1)N1CCNCC1 [Compound 63, 2-((2-(((1s,4s)-4-((7-Morpholino-1,6-naphthyridin-5-yl)oxy)cyclohexyl)amino)pyrimidin-5-yl)oxy)-1-(piperazin-1-yl)ethan-1-one]
pIC50 [1]: > 9.30
pIC50 [2]: > 7.00
hepatocyte CLint at 1 uM [3]: > 8.2 µL/min/1e6 cells
Hepatocyte Stability Human % rem. 120 min [3]: F (% remaining = 25-50%)

CN(C)CCOc1cnc(N[C@H]2CC[C@@H](Oc3nc(N4CCOCC4)cc4ncccc34)CC2)nc1 [Compound 64, 5-(2-(Dimethylamino)ethoxy)-N-((1s,4s)-4-((7-morpholino-1,6-naphthyridin-5-yl)oxy)cyclohexyl)pyrimidin-2-amine]
pIC50 [1]: > 9.30
pIC50 [2]: 6.00 to 7.00

NCCOc1cnc(N[C@H]2CC[C@@H](Oc3nc(N4CCOCC4)cc4ncccc34)CC2)nc1 [Compound 65, 5-(2-Aminoethoxy)-N-((1s,4s)-4-((7-morpholino-1,6-naphthyridin-5-yl)oxy)cyclohexyl)pyrimidin-2-amine]
pIC50 [1]: > 9.30
pIC50 [2]: > 7.00
hepatocyte CLint at 1 uM [3]: < 8.2 µL/min/1e6 cells
Hepatocyte Stability Human % rem. 120 min [3]: F (% remaining = 25-50%)

CC(=O)NCCOc1cnc(N[C@H]2CC[C@@H](Oc3nc(N4CCOCC4)cc4ncccc34)CC2)nc1 [Compound 66]
pIC50 [1]: 9.00 to 9.30
pIC50 [2]: > 7.00
hepatocyte CLint at 1 uM [3]: < 8.2 µL/min/1e6 cells
Hepatocyte Stability Human % rem. 120 min [3]: G (% remaining = 50-75%)

c1cnc2cc(N3CCOCC3)nc(O[C@H]3CC[C@@H](Nc4ncc(OCCN5CCOCC5)cn4)CC3)c2c1 [Compound 68, N-((1s,4s)-4-((7-Morpholino-1,6-naphthyridin-5-yl)oxy)cyclohexyl)-5-(2-morpholinoethoxy)pyrimidin-2-amine]
pIC50 [1]: > 9.30
pIC50 [2]: 6.00 to 7.00
hepatocyte CLint at 1 uM [3]: > 8.2 µL/min/1e6 cells
Hepatocyte Stability Human % rem. 120 min [3]: F (% remaining = 25-50%)

CN1CCN(CCOc2cnc(N[C@H]3CC[C@@H](Oc4nc(N5CCOCC5)cc5ncccc45)CC3)nc2)CC1 [Compound 69, 5-(2-(4-Methylpiperazin-1-yl)ethoxy)-N-((1s,4s)-4-((7-morpholino-1,6-naphthyridin-5-yl)oxy)cyclohexyl)pyrimidin-2-amine]
pIC50 [1]: > 9.30
pIC50 [2]: > 7.00
hepatocyte CLint at 1 uM [3]: < 8.2 µL/min/1e6 cells
Hepatocyte Stability Human % rem. 120 min [3]: G (% remaining = 50-75%)

CNC(=O)COc1cnc(N[C@H]2CC[C@@H](Oc3nc(N4CCOCC4)cc4ncccc34)CC2)nc1 [Compound 71, N-Methyl-2-((2-(((1s,4s)-4-((7-morpholino-1,6-naphthyridin-5-yl)oxy)cyclohexyl)amino)pyrimidin-5-yl)oxy)acetamide]
pIC50 [1]: > 9.30
pIC50 [2]: > 7.00
hepatocyte CLint at 1 uM [3]: < 8.2 µL/min/1e6 cells
Hepatocyte Stability Human % rem. 120 min [3]: G (% remaining = 50-75%)

O=C(COc1cnc(N[C@H]2CC[C@@H](Oc3nc(N4CCOCC4)cc4ncccc34)CC2)nc1)N1CCC1 [Compound 75, 1-(Azetidin-1-yl)-2-((2-(((1s,4s)-4-((7-morpholino-1,6-naphthyridin-5-yl)oxy)cyclohexyl)amino)pyrimidin-5-yl)oxy)ethan-1-one]
pIC50 [1]: > 9.30
pIC50 [2]: > 7.00
hepatocyte CLint at 1 uM [3]: < 8.2 µL/min/1e6 cells
Hepatocyte Stability Human % rem. 120 min [3]: H (% remaining = 75-100%)

CN(C)C(=O)Cn1ccc2nc(N[C@H]3CC[C@@H](Oc4nc(N5CCOCC5)cc5ncccc45)CC3)ncc21 [Compound 86, N,N-Dimethyl-2-(2-(((1s,4s)-4-((7-morpholino-1,6-naphthyridin-5-yl)oxy)cyclohexyl)amino)-5H-pyrrolo[3,2-d]pyrimidin-5-yl)acetamide]
pIC50 [1]: > 9.30
pIC50 [2]: > 7.00
hepatocyte CLint at 1 uM [3]: < 8.2 µL/min/1e6 cells
Hepatocyte Stability Human % rem. 120 min [3]: H (% remaining = 75-100%)

O=c1[nH]c2cnc(N[C@H]3CC[C@@H](Oc4nc(N5CCOCC5)cc5ncccc45)CC3)nc2n1C1CCOCC1 [Compound 95, 2-(((1s,4s)-4-((7-Morpholino-1,6-naphthyridin-5-yl)oxy)cyclohexyl)amino)-9-(tetrahydro-2H-pyran-4-yl)-7,9-dihydro-8H-purin-8-one]
pIC50 [1]: 9.00 to 9.30
pIC50 [2]: > 7.00
hepatocyte CLint at 1 uM [3]: > 8.2 µL/min/1e6 cells
Hepatocyte Stability Human % rem. 120 min [3]: F (% remaining = 25-50%)

Cn1c(=O)n(C2CCOCC2)c2nc(N[C@H]3CC[C@@H](Oc4nc(N5CCOCC5)cc5ncccc45)CC3)ncc21 [Compound 96, 7-Methyl-2-(((1s,4s)-4-((7-morpholino-1,6-naphthyridin-5-yl)oxy)cyclohexyl)amino)-9-(tetrahydro-2H-pyran-4-yl)-7,9-dihydro-8H-purin-8-one]
pIC50 [1]: > 9.30
pIC50 [2]: > 7.00
hepatocyte CLint at 1 uM [3]: > 8.2 µL/min/1e6 cells
Hepatocyte Stability Human % rem. 120 min [3]: F (% remaining = 25-50%)

CN(C)C(=O)Cn1c(=O)n(C2CCOCC2)c2nc(N[C@H]3CC[C@@H](Oc4nc(N5CCOCC5)cc5ncccc45)CC3)ncc21 [Compound 97, N,N-Dimethyl-2-(2-(((1s,4s)-4-((7-morpholino-1,6-naphthyridin-5-yl)oxy)cyclohexyl)amino)-8-oxo-9-(tetrahydro-2H-pyran-4-yl)-8,9-dihydro-7H-purin-7-yl)acetamide]
pIC50 [1]: > 9.30
pIC50 [2]: > 7.00
hepatocyte CLint at 1 uM [3]: < 8.2 µL/min/1e6 cells
Hepatocyte Stability Human % rem. 120 min [3]: G (% remaining = 50-75%)

O=C(Cn1c(=O)n(C2CCOCC2)c2nc(N[C@H]3CC[C@@H](Oc4nc(N5CCOCC5)cc5ncccc45)CC3)ncc21)N1CCOCC1 [Compound 98, 2-(((1s,4s)-4-((7-Morpholino-1,6-naphthyridin-5-yl)oxy)cyclohexyl)amino)-7-(2-morpholino-2-oxoethyl)-9-(tetrahydro-2H-pyran-4-yl)-7,9-dihydro-8H-purin-8-one]
pIC50 [1]: > 9.30
pIC50 [2]: > 7.00
hepatocyte CLint at 1 uM [3]: > 8.2 µL/min/1e6 cells
Hepatocyte Stability Human % rem. 120 min [3]: F (% remaining = 25-50%)

O=C(Cn1c(=O)n(C2CCOCC2)c2nc(N[C@H]3CC[C@@H](Oc4nc(N5CCOCC5)cc5ncccc45)CC3)ncc21)N1CCC1 [Compound 99, 7-(2-(Azetidin-1-yl)-2-oxoethyl)-2-(((1s,4s)-4-((7-morpholino-1,6-naphthyridin-5-yl)oxy)cyclohexyl)amino)-9-(tetrahydro-2H-pyran-4-yl)-7,9-dihydro-8H-purin-8-one]
pIC50 [1]: > 9.30
pIC50 [2]: > 7.00
hepatocyte CLint at 1 uM [3]: > 8.2 µL/min/1e6 cells
Hepatocyte Stability Human % rem. 120 min [3]: F (% remaining = 25-50%)

O=C(O)c1cnc2cc(N3CCOCC3)nc(O[C@H]3CC[C@@H](n4ccnc4)CC3)c2c1 [Compound 165, 5-(((1s,4s)-4-(1H-imidazol-1-yl)cyclohexyl)oxy)-7-morpholino-1,6-naphthyridine-3-carboxylic acid]
pIC50 [1]: > 9.30
pIC50 [2]: 4.52 to 5.00

O=C(NO)c1cnc2cc(N3CCOCC3)nc(O[C@H]3CC[C@@H](n4ccnc4)CC3)c2c1 [Compound 172, 5-(((1s,4s)-4-(1H-imidazol-1-yl)cyclohexyl)oxy)-N-hydroxy-7-morpholino-1,6-naphthyridine-3-carboxamide]
pIC50 [1]: > 9.30
pIC50 [2]: 5.00 to 6.00

CS(=O)(=O)NC(=O)c1cnc2cc(N3CCOCC3)nc(O[C@H]3CC[C@@H](n4ccnc4)CC3)c2c1 [Compound 175, 5-(((1s,4s)-4-(1H-imidazol-1-yl)cyclohexyl)oxy)-N-(methylsulfonyl)-7-morpholino-1,6-naphthyridine-3-carboxamide]
pIC50 [1]: 9.00 to 9.30
pIC50 [2]: 4.52 to 5.00
